Experiment: xn = mol fraction of the nth substance listed

CC(=O)c1ccccc1 + CC(C)(C)O
viscosity [mPa·s], 101 kPa
Conditions | x2 = 0.1188 | x2 = 0.2314 | x2 = 0.3395 | x2 = 0.4286 | x2 = 0.545 | x2 = 0.6429 | x2 = 0.7373 | x2 = 0.8283 | x2 = 0.9142
298.15 K | 2.081 | 2.456 | 2.8 | 3.08 | 3.42 | 3.651 | 3.856 | 4.034 | 4.208
303.15 K | 1.794 | 2.055 | 2.284 | 2.473 | 2.712 | 2.874 | 3.004 | 3.127 | 3.247
308.15 K | 1.573 | 1.743 | 1.895 | 2.023 | 2.185 | 2.29 | 2.378 | 2.468 | 2.549

CC(C)OC(C)C + CCC(C)O
viscosity [mPa·s], 100 kPa
Conditions | x1 = 0.0813 | x1 = 0.1604 | x1 = 0.2406 | x1 = 0.341 | x1 = 0.447 | x1 = 0.5582 | x1 = 0.6505 | x1 = 0.7374 | x1 = 0.8465 | x1 = 0.9346
293.15 K | 3 | 2.51 | 2.1 | 1.653 | 1.304 | 0.976 | 0.772 | 0.623 | 0.473 | 0.384
298.15 K | 2.51 | 2.09 | 1.75 | 1.395 | 1.122 | 0.846 | 0.678 | 0.56 | 0.44 | 0.365
303.15 K | 2.11 | 1.742 | 1.453 | 1.16 | 0.95 | 0.75 | 0.619 | 0.522 | 0.414 | 0.344
308.15 K | 1.76 | 1.48 | 1.241 | 1.004 | 0.834 | 0.67 | 0.558 | 0.473 | 0.388 | 0.325
313.15 K | 1.49 | 1.25 | 1.06 | 0.87 | 0.73 | 0.596 | 0.51 | 0.44 | 0.361 | 0.307
318.15 K | 1.28 | 1.074 | 0.92 | 0.769 | 0.65 | 0.535 | 0.46 | 0.4 | 0.333 | 0.29
323.15 K | 1.1 | 0.931 | 0.801 | 0.67 | 0.575 | 0.48 | 0.416 | 0.367 | 0.31 | 0.27

CCCOCC(C)O (centres undefined) + CCCNCCC
viscosity [mPa·s], 100 kPa
Conditions | 298.15 K | 303.15 K | 308.15 K
x1 = 0.0501 | 0.5507 | 0.5133 | 0.4872
x1 = 0.1003 | 0.6065 | 0.556 | 0.5257
x1 = 0.1502 | 0.6545 | 0.6056 | 0.571
x1 = 0.1999 | 0.7308 | 0.6597 | 0.6196
x1 = 0.3 | 0.8816 | 0.7957 | 0.7427
x1 = 0.4 | 1.089 | 0.969 | 0.894
x1 = 0.4999 | 1.294 | 1.144 | 1.052
x1 = 0.6 | 1.558 | 1.351 | 1.228
x1 = 0.6999 | 1.823 | 1.571 | 1.415
x1 = 0.7997 | 2.079 | 1.784 | 1.603
x1 = 0.8999 | 2.275 | 1.945 | 1.748
x1 = 0.9498 | 2.357 | 2.016 | 1.815

CCC(O)CC + c1ccccc1
293.15 K, 101 kPa
Conditions | viscosity [mPa·s]
x1 = 0.00635 | 0.6446
x1 = 0.01101 | 0.6433
x1 = 0.01253 | 0.643
x1 = 0.01995 | 0.6415
x1 = 0.02106 | 0.6411
x1 = 0.02501 | 0.641
x1 = 0.02806 | 0.6407
x1 = 0.03344 | 0.6406
x1 = 0.03446 | 0.6405
x1 = 0.03706 | 0.6399
x1 = 0.04178 | 0.6401
x1 = 0.04896 | 0.6415
x1 = 0.05587 | 0.6414
x1 = 0.06451 | 0.6436
x1 = 0.08637 | 0.6486
x1 = 0.1808 | 0.6856
x1 = 0.2725 | 0.7429
x1 = 0.3756 | 0.835
x1 = 0.468 | 0.9578
x1 = 0.6521 | 1.402
x1 = 0.7757 | 1.943
x1 = 0.8899 | 2.92

CCCCCCn1cc[n+](C)c1.[Br-] + O
303.15 K, 101 kPa
Conditions | viscosity [mPa·s]
x2 = 0.2196 | 695.5
x2 = 0.2978 | 395.5

CCCCCCCCC + C1CCCCC1
viscosity [mPa·s], 101.33 kPa
Conditions | 298.15 K | 303.15 K | 308.15 K
x2 = 0.106 | 0.658 | 0.617 | 0.576
x2 = 0.1286 | 0.6708 | – | –
x2 = 0.1999 | 0.664 | 0.623 | 0.582
x2 = 0.2414 | 0.6821 | – | –
x2 = 0.2987 | 0.672 | 0.632 | 0.589
x2 = 0.342 | 0.686 | – | –
x2 = 0.3971 | 0.677 | 0.633 | 0.591
x2 = 0.4371 | 0.7041 | – | –
x2 = 0.4952 | 0.696 | 0.648 | 0.602
x2 = 0.5293 | 0.7089 | – | –
x2 = 0.5978 | 0.708 | 0.659 | 0.616
x2 = 0.6059 | 0.7214 | – | –
x2 = 0.683 | 0.7381 | – | –
x2 = 0.6994 | 0.73 | 0.679 | 0.631
x2 = 0.7423 | 0.7545 | – | –
x2 = 0.7989 | 0.762 | 0.706 | 0.658
x2 = 0.8068 | 0.7761 | – | –
x2 = 0.873 | 0.8053 | – | –
x2 = 0.8991 | 0.805 | 0.743 | 0.687
x2 = 0.9395 | 0.8376 | – | –
x2 = 0.9769 | 0.881 | – | –

CC(=O)c1ccccc1 + ClCCCl
298.15 K, 101 kPa
Conditions | viscosity [mPa·s]
x2 = 0.1118 | 1.531
x2 = 0.3581 | 1.283
x2 = 0.6942 | 0.993

[Al+3].[Cl-].[Cl-].[Cl-] + CCCC(N)=O
viscosity [mPa·s], 101 kPa
Conditions | x1 = 0.5 | x1 = 0.52 | x1 = 0.57 | x1 = 0.6 | x1 = 0.63
313 K | 28.41 | 23.88 | 23.18 | 24.75 | 27.31
323 K | 20.42 | 17.69 | 17.62 | 17.72 | 19.85

From the CheMixHub viscosity set
